SMILES strings stand for the structures.

The series is described as follows: Human HepG2 cell viability assay in 384 well format. Format: toxicity, cell-based. Details: dose 125 nL, time 70.5 hour; cytotoxicity at 70.5 h: concentration not given beside the values. Conditions: HepG2 cells, read-out: Inhibition.
With `CC(C)C[C@H](N)C(=O)N1CCSc2ccccc2C1`, the cytotoxicity at 70.5 h is 0.624%.
For the compound `CCCn1cc(Cl)c(C(=O)N2C[C@@H](O)[C@H](Oc3ccccc3)C2)n1`, the cytotoxicity at 70.5 h was 1.62%.
The result for `CCN(CC)CCCN1CCN(c2nc(C)cnc2C)CC1` reads -7.19%; that for `CCN(C)CC1CCN(c2ncc(Br)cn2)C1` (stereo not given), 9.92%; that for `N#CCCN(CCC#N)C(=O)CN1CCCC1Cc1cccc(F)c1` (stereo not given), -5%.
The same measure for `COCc1nc2ncc3c(=O)n(-c4cccc(OC)c4)ccc3n2n1`: 27.8%.
With `Cc1cc(C2CCCN(Cc3ncc(C(C)C)o3)C2)n[nH]1` (stereo not given), the cytotoxicity at 70.5 h is -6.54%.
Regarding `CC(C)c1nsc(N2CCn3c(nnc3C(F)(F)F)C2)n1`, the cytotoxicity at 70.5 h came to 4.03%.
`O=C1[C@@H]2CN(c3ncc(Cl)cc3F)C[C@]2(C(=O)O)CN1CC1CC1`: the cytotoxicity at 70.5 h is -5.98%.
The result for `Cc1ncsc1C(=O)NCc1ccc(-c2n[nH]cc2C(=O)N(C)C)cc1` reads -1.47%.
The result for `Cn1cc(C(=O)NCc2ccc(OC3CCCCC3)nc2)ccc1=O` reads -7.34%.
The same measure for `O=C(O)CCc1nc2nccc(-c3ccc(F)cc3)n2n1`: 20.1%; for `O=c1c(CN2CCCCCC2)coc(O)c1CN1CCCCCC1`: -4.84%.
As to `CC(C)NC(=O)[C@H]1C[C@@H]2[C@@H](C1)OCCN2Cc1nccs1`, the cytotoxicity at 70.5 h was -4.27%.
The same measure for `CCC(C)N(Cc1cccnc1)Cc1cc2c(cc1Cl)OCO2` (stereo not given): -1.59%; for `Cc1cc2ccccc2n1CCC(=O)N1CCC2(CC1)CNC(=O)C2`: 3.32%.
Turning to `Cc1cccc2c1ccn2CC(=O)NC[C@@H]1CCCN2CCCC[C@H]12`, the cytotoxicity at 70.5 h is -6.63%.
The result for `Cc1cccc(-c2nccn2C2CC(=O)N(C(C)C)C2)n1` (stereo not given) reads 0.181%; that for `COc1ccc2c(c1)CC(NC(=O)NCc1cccs1)CO2` (stereo not given), -14.1%.
The same measure for `c1ccc(CN2C[C@@H]3CC[C@H](C2)N(Cc2nnc(C4CC4)o2)C3)cc1`: -8.78%; for `Cc1cc(C)n(CC2CCCN2CCCS(N)(=O)=O)n1` (stereo not given): -8.83%; for `c1ccc(C2CCCN2C2CCSCC2)nc1` (stereo not given): 0.0849%.
The same measure for `O=C(COCC(=O)N(c1ccccc1)c1ccccc1)N1CCCCC1`: 19.2%.
With `CC(=O)N1CCC(Cc2cnc(-n3ccnc3)cn2)CC1`, the cytotoxicity at 70.5 h is -6.47%.
The result for `Cc1nc(CN2CCCN(CC(=O)N(C)CCC#N)CC2)no1` reads -9.21%; that for `CN(C)CC(=O)N1CCc2cccc(S(=O)(=O)N3CCOCC3)c2C1`, 0.694%; that for `CC(C(=O)N1CCCN(Cc2ccc(C#N)cc2)CC1)n1ccnc1` (stereo not given), 0.793%.
The result for `CC(C(=O)N1CCCC1)N1CCC(c2nccn2Cc2cscn2)CC1` (stereo not given) reads -9.41%; that for `Cc1cc(C)nc(N2CCC(c3nnc(CN(C)C)n3C3CC3)CC2)n1`, -5.18%.
Turning to `CC(C)c1cc(C(=O)N2CCCC(c3cc(=O)nc4n3CCC4)C2)no1` (stereo not given), the cytotoxicity at 70.5 h was -11.3%.
The same measure for `CC(=O)NCCNC(=O)CN1CCCC(Cn2cncn2)C1` (stereo not given): -4.84%.
The same measure for `CCN1CCOCC2(CCCN(C(=O)c3ccncc3F)C2)C1` (stereo not given): -3.01%; for `Cc1noc(C)c1C(=O)NCc1ccnc(OCC(F)(F)F)c1`: -0.701%.
The same measure for `O=C(NCCOCCO)c1cccnc1Oc1ccc(Cl)cc1`: 16.6%; for `COc1cc(COCC2CCN(Cc3ccccn3)CC2)cc(OC)c1`: -8.26%.
Regarding `Cc1nc(Cn2nc(C3CCNCC3)n(Cc3ccccc3)c2=O)no1`, the cytotoxicity at 70.5 h turned out to be 6.65%.
The same measure for `Cc1ccc(-c2nnc(CN3CCn4c(nnc4C4CC4)C3)o2)cc1`: -8.76%.
The same measure for `COCC1c2nnn(CC3CC3)c2CCN1C(=O)c1cc(C)[nH]c1C` (stereo not given): -9.95%; for `COCCN(Cc1ccc(C)cc1)Cc1nccn1C`: -0.21%; for `O=C(Cc1ccccc1)NCCNC(=O)c1scnc1Cl`: -9.54%.
Turning to `CC1CN(Cc2ccccc2Cn2cccn2)CCN1C` (stereo not given), the cytotoxicity at 70.5 h is -0.364%.
The result for `COCCC(=O)N1CCCC(c2n[nH]cc2C)C1` (stereo not given) reads 15.1%.
The result for `CS(=O)(=O)NC1CCN(C(=O)c2cnc(-c3cccnc3)nc2)CC1` reads -7.35%; that for `CN1CCOC(C(=O)N2CCCC(C)(C)CC2)C1` (stereo not given), -3.51%; that for `CCn1cc2c(n1)C(COCC1CC1)CN(C(=O)c1ccsc1)C2` (stereo not given), -10.1%.
The same measure for `c1csc(-c2noc(CN3CCc4cncnc4C3)n2)c1`: -8.24%; for `CN1CCCC1CNC(=O)CCCOc1ccc(F)cc1` (stereo not given): 0.0711%.
As for `COC(=O)N1CCC(CNC(=O)C2CC2)CC1`, the cytotoxicity at 70.5 h was -18.1%.
The result for `CN(C)c1nc(CNC(=O)N[C@H](CO)c2ccccc2)cs1` reads 30.7%.
Regarding `O=C(NCCC1=CCCCC1)NCc1nnc2n1CCC2`, the cytotoxicity at 70.5 h was -10.8%.
In the case of `CCc1cc(CNC(=O)N(C2CC2)C(C)c2ccco2)[nH]n1` (stereo not given), the cytotoxicity at 70.5 h was -5.28%.
The same measure for `CS(=O)(=O)N1CCC(NC(=O)COc2cccc(Cl)c2)CC1`: 1.43%; for `c1cnc(NCc2cncc3c2CCN(CC2CC2)C3)nc1`: 3.44%; for `CSCCNc1ccc(C(=O)N(C)Cc2ccc3ccccc3n2)cn1`: -12.8%.
The result for `Cc1nn(C)c(C)c1C1CCCN1C(=O)c1ccc(Cl)o1` (stereo not given) reads 3.22%.
The result for `CNc1ncccc1CN1CCN(C)CC(C(N)=O)C1` (stereo not given) reads 25.3%.
Turning to `CC(Cn1cccn1)NCc1csc(-c2ccc3c(c2)OCO3)n1` (stereo not given), the cytotoxicity at 70.5 h is -5.39%.
The same measure for `Cc1csc(C(=O)NCCn2nc(-n3cncn3)ccc2=O)c1`: -6.83%; for `N[C@H]1CN(C(=O)Cc2ccc(CO)cc2)C[C@@H]1C1CC1`: 34.3%; for `CCOCc1cncc2c1CCN(C(=O)c1cccc(C#N)c1)C2`: -1.85%.
The same measure for `Cn1c(=O)oc2cc(Nc3ncc(C#N)cc3Cl)ccc21`: -4.36%; for `CN(Cc1nc(Cc2cccc(C(F)(F)F)c2)no1)C1CCCCC1`: -10.4%.
The same measure for `CO[C@H]1CCN(C2CCC2)[C@@H]2CN(Cc3ccncc3)C[C@H]12`: -0.868%; for `CC(C)C(O)C(=O)N1CCC2(CC1)c1nc[nH]c1CCN2S(C)(=O)=O` (stereo not given): -6.39%.
For the compound `NC1(c2nc(-c3ccccc3)cc(=O)[nH]2)CCCCC1`, the cytotoxicity at 70.5 h was -10.8%.
For the compound `O=C(NCc1nc2ccccc2[nH]1)c1cnn2c1OCCC2`, the cytotoxicity at 70.5 h is -1.96%.
The same measure for `Cc1noc(Cl)c1CCC(=O)N1CCC(CC(N)=O)CC1`: -4.77%.
The result for `CCn1cc(NC(=O)C2CCN(CC(=O)NC(C)(C)CC)CC2)cn1` reads -2.19%; that for `Cc1ccc(N(CCC#N)C(=O)CCc2cccnc2)cc1C`, -5.18%; that for `Cc1cc(CN(Cc2ccccc2)C(C)CN2CCOCC2)no1` (stereo not given), -5.58%.
The result for `Cc1nc(N2CCCC2)ccc1NCc1ccccn1` reads -96.9%; that for `CCSCCC(=O)NCc1cc2n(n1)CCN(C(=O)N(C)C)C2`, -6.68%.
Consider `O=C(c1cccc(Cl)c1)N1CC[C@H]2[C@H]1CCN2CC1CCOCC1`, for which the cytotoxicity at 70.5 h was -8.99%.
The same measure for `c1ccc(O[C@@H]2CN(Cc3nccs3)[C@@H]3CCCO[C@@H]32)nc1`: 1.57%.
The same measure for `CC(Cn1cncc1-c1cnn(C2CCCCC2)c1)N1CCCCC1` (stereo not given): 25%; for `O=C(CCCOc1cccc(F)c1)N1CCCC(n2cccn2)C1` (stereo not given): -5.07%; for `CCn1nc(C)c2nc(C(C)C)nc(N3CCC(O)CC3)c21`: -15.2%.
The result for `O=C(CCn1ccc2ccccc21)N1CCC(Nc2cccnc2)CC1` reads -1.56%; that for `O=C(Nc1ccc(I)cc1C(=O)NCCN1CCOCC1)c1ccco1`, 8.88%; that for `CC(C)NC[C@@]1(COc2ccccc2)C[C@@H](O)[C@@H](O)C1`, -5.31%.
`CC(C)C(C(=O)N1CCC2(CC1)CN(C)C(=O)O2)c1ccccc1` (stereo not given): the cytotoxicity at 70.5 h was -8.69%.
The result for `CCNc1cc2c(nn1)CCN(C(=O)c1cc(C)n(C3CC3)c1C)C2` reads -0.806%; that for `CO[C@@H]1CCN(Cc2ccoc2)C[C@@H]1Cc1ccccc1`, 1.1%.
The result for `CCn1c(C(=O)N2CCN(C(=O)COC)CC2)cc2ccccc21` reads 26.3%.
The result for `CN(Cc1ccsc1)C(=O)c1cccc(S(=O)(=O)NCC2CCCO2)c1` (stereo not given) reads 15.1%.
Turning to `O=C(COc1ccc2c(c1)CCC2)NS(=O)(=O)c1cncc(Br)c1`, the cytotoxicity at 70.5 h was -2.54%.
The same measure for `CCc1cc(OC)c(OC)cc1C(=O)Nc1cccnc1`: 13%.
The result for `Cn1cc(C2CCCN2C(=O)CCCOCc2ccccc2)cn1` (stereo not given) reads 4.25%.
The same measure for `Cc1sc(CNS(N)(=O)=O)nc1-c1ccc(Cl)cc1`: -2.62%.
As to `Cc1noc(NCc2ccc(F)cc2)n1`, the cytotoxicity at 70.5 h was -1.48%.
The result for `CN1CCN(C(=O)NCCNc2ncccn2)Cc2ccccc21` reads -14%; that for `CC1CN(C)c2ccccc2CN1C(=O)c1ccc[nH]1` (stereo not given), 0.885%; that for `O=C(CSCc1ccccn1)N(Cc1ccsc1)C1CC1`, -2.85%.
The result for `COc1c(CNC2(c3ccc(Cl)cc3)CCC2)c(C)nn1C` reads 5.64%.
The same measure for `CCc1nnc2n1CCN(c1nc3ccccc3o1)C2`: -7.72%; for `COc1ccccc1CNC(=O)C[S+]([O-])Cc1cc(C)on1` (stereo not given): -3.68%; for `CCC(=O)Nc1ccc(C(C)NC(=O)COC)cc1` (stereo not given): -9.08%.
`Cc1n[nH]cc1CNC(=O)Nc1cccc(OCC(F)(F)F)c1`: the cytotoxicity at 70.5 h is -6.62%.
The result for `CC(=O)N(CCc1ccccc1)CC(=O)NC1(C#N)CC1` reads -0.397%; that for `CC(NC(=O)Cn1ccc2sccc2c1=O)c1ccccc1` (stereo not given), -10.1%.

These data come from ChEMBL document CHEMBL3507680, “University of Dundee, Gates Library screen for HepG2 cell viability”.
